This test deals with one or more of HDAC-4, HDAC-5, HDAC-6, HDAC-7, HDAC-8, HDAC-9, HDAC-10 and HDAC-11. As to the kind of experiment: Inhibition of histone deacetylase enzymatic activity (summary statement over isoforms). It counts as biochemical. The conditions noted are these: Table 3, selected examples; HDAC isoform not given. The protocol: The following protocol is used to assay the compounds of the invention.
The mixture is pre-incubated for 5 minutes at room temperature. The reaction is started by bringing the temperature to 37° C. and adding 15 μL substrate. Total reaction volume is 50 μL.
A 30 mM stock of Boc-Lys(trifluoroacetyl)-AMC substrate is prepared in DMSO. […] Reaction is started by adding 18 μL Boc-Lys(trifluoroacetyl)-AMC substrate and incubating at 37° C. for 20-30 minutes. The reaction is stopped by adding 50 μL trypsin (1 mg/mL) and a known HDAC inhibitor.

As usually defined, the IC50 is the point on the concentration scale where inhibition reaches its midpoint. A low value points to inhibition by little substance.

On to “2-(3-(benzo[d][1,3]dioxol-5-ylmethylbenzo[d][1,3]dioxol-5-ylmethoxy)phenyl)-N-hydroxy-2-phenylacetamide [Compound 3-7]”, for which the IC50 was below 1000 nM.
The value for “2-(4-(benzo[d][1,3]dioxol-5-ylmethylbenzo[d][1,3]dioxol-5-ylmethoxy)phenyl)-N-hydroxy-2-phenylacetamide [Compound 3-11]” was below 1000 nM.
The value for `O=C(NO)C(Oc1ccccc1)c1ccccc1` (stereo not shown) [Compound 1-2, N-hydroxy-2-phenoxy-2-phenylacetamide] was below 1000 nM; that for `O=C(NO)C(c1ccc([N+](=O)[O-])cc1)c1ccc([N+](=O)[O-])cc1` [Compound 1-3, N-hydroxy-2,2-bis(4-nitrophenyl)acetamide] was below 1000 nM; that for `O=C(NO)C(c1ccccc1)N1CCCCC1` (stereo not shown) [Compound 1-4, N-hydroxy-2-phenyl-2-(piperidin-1-yl)acetamide] was below 1000 nM.
Consider `O=C(CN(Cc1ccccc1)S(=O)(=O)c1ccccc1)NO` [Compound 1-5, 2-(N-benzylphenylsulfonamido)-N-hydroxyacetamide], for which the IC50 lay within 1000 to 15000 nM.
The compound `O=C(CC(c1ccccc1)c1ccccc1)NO` [Compound 1-6, N-hydroxy-3,3-diphenylpropanamide] displayed an IC50 below 1000 nM.
The value for `O=C(NO)C(c1ccc2c(c1)CCO2)c1ccc2c(c1)CCO2` [Compound 1-8, 2,2-bis(2,3-dihydrobenzofuran-5-yl)-N-hydroxyacetamide] was below 1000 nM.
In turn, `O=C(NO)C(c1ccccc1)N1CCC(Cc2ccccc2)CC1` (stereo not shown) [Compound 1-9, 2-(4-benzylpiperidin-1-yl)-N-hydroxy-2-phenylacetamide] registered an IC50 below 1000 nM.
In turn, `O=C(NO)C(c1ccccc1)C1CCCCC1` (stereo not shown) [Compound 1-10, 2-cyclohexyl-N-hydroxy-2-phenylacetamide] returned an IC50 below 1000 nM.
The compound `O=C(NO)C(Cc1ccccc1)c1ccccc1` (stereo not shown) [Compound 1-11, N-hydroxy-2,3-diphenylpropanamide] yielded an IC50 of 1000 to 15000 nM.
The compound `O=C(NO)C(Sc1ccccc1)c1ccccc1` (stereo not shown) [Compound 1-12, N-hydroxy-2-phenyl-2-(phenylthio)acetamide] displayed an IC50 below 1000 nM.
The value for `O=C(NO)C(c1ccccc1)n1cccc1` (stereo not shown) [Compound 1-13, N-hydroxy-2-phenyl-2-(1H-pyrrol-1-yl)acetamide] was 1000 to 15000 nM.
Regarding `CC(C(=O)NO)(c1ccccc1)c1ccccc1` [Compound 1-14, N-hydroxy-2,2-diphenylpropanamide], the IC50 was below 1000 nM.
Consider `O=C(NO)C(c1ccc(Cl)cc1)c1ccc(Cl)cc1` [Compound 1-15, 2,2-bis(4-chlorophenyl)-N-hydroxyacetamide], for which the IC50 is below 1000 nM.
As for `O=C(NO)C(c1ccccc1)N1CCN(c2ccccc2)CC1` (stereo not shown) [Compound 1-16, N-hydroxy-2-phenyl-2-(4-phenylpiperazin-1-yl)acetamide], the concentration for half-maximal inhibition (IC50) was below 1000 nM.
With `O=C(NO)C(c1ccccc1)N1CCN(Cc2ccccc2)CC1` (stereo not shown) [Compound 1-17, 2-(4-benzylpiperazin-1-yl)-N-hydroxy-2-phenylacetamide], the IC50 fell in the range of 1000 to 15000 nM.
Turning to `O=C(NO)C(c1ccc(F)cc1)c1ccc(F)cc1` [Compound 1-18, 2,2-bis(4-fluorophenyl)-N-hydroxyacetamide], the IC50 is below 1000 nM.
`CCN(CC)c1ccc(C(C(=O)NO)c2ccccc2)cc1` (stereo not shown) [Compound 1-19, 2-(4-(diethylamino)phenyl)-N-hydroxy-2-phenylacetamide] had an IC50 below 1000 nM.
As for `O=C(NO)C(c1ccccc1)c1nc2ccc(-c3cccs3)cc2[nH]1` (stereo not shown) [Compound 1-20, N-hydroxy-2-phenyl-2-(6-(thiophen-2-yl)-1H-benzo[d]imidazol-2-yl)acetamide], the figure is below 1000 nM.
As to `O=C(NO)/C(=C/c1ccccc1)c1ccccc1` [Compound 1-21, (E)-N-hydroxy-2,3-diphenylacrylamide], the IC50 is below 1000 nM.
The value for `O=C(NO)C(c1ccccc1)N1Cc2ccccc2C1` (stereo not shown) [Compound 1-22, N-hydroxy-2-(isoindolin-2-yl)-2-phenylacetamide] was 1000 to 15000 nM.
`O=C(NO)C(c1cccs1)c1cccs1` [Compound 1-23, N-hydroxy-2,2-di(thiophen-2-yl)acetamide] came in with an IC50 of 1000 to 15000 nM.
The compound `O=C(NO)C(Sc1nc2ccccc2s1)c1ccccc1` (stereo not shown) [Compound 1-24, 2-(benzo[d]thiazol-2-ylthio)-N-hydroxy-2-phenylacetamide] yielded an IC50 below 1000 nM.
For the compound `O=C(NO)C(c1ccccc1)c1nc2cc(Cl)c(F)cc2[nH]1` (stereo not shown) [Compound 1-25, 2-(5-chloro-6-fluoro-1H-benzo[d]imidazol-2-yl)-N-hydroxy-2-phenylacetamide], the IC50 is 1000 to 15000 nM.
`O=C(NO)C(c1ccccc1)n1cc(-c2ccccc2)nn1` (stereo not shown) [Compound 1-26, N-hydroxy-2-phenyl-2-(4-phenyl-1H-1,2,3-triazol-1-yl)acetamide] registered an IC50 below 1000 nM.
The value for `O=C(NO)C(c1ccccc1)n1cc(CCc2ccccc2)nn1` (stereo not shown) [Compound 1-27, N-hydroxy-2-(4-phenethyl-1H-1,2,3-triazol-1-yl)-2-phenylacetamide] was 1000 to 15000 nM.
For `O=C(NO)C(O)(c1ccccc1)c1ccccc1` [Compound 1-28, N,2-dihydroxy-2,2-diphenylacetamide], the IC50 was below 1000 nM.
With `CN(C)c1ccc(C(C(=O)NO)c2ccccc2)cc1` (stereo not shown) [Compound 1-29, 2-(4-(dimethylamino)phenyl)-N-hydroxy-2-phenylacetamide], the IC50 is below 1000 nM.
The value for `O=C(NO)C(c1ccccc1)N1CCC(Cc2ccc(F)cc2)CC1` (stereo not shown) [Compound 1-30, 2-(4-(4-fluorobenzyl)piperidin-1-yl)-N-hydroxy-2-phenylacetamide] was below 1000 nM; that for `O=C(NO)C(c1ccccc1)N1CCC(CCc2ccccc2)CC1` (stereo not shown) [Compound 1-31, N-hydroxy-2-(4-phenethylpiperidin-1-yl)-2-phenylacetamide] was below 1000 nM; that for `O=C(NO)C(c1ccccc1)c1ccc(-c2ccccc2)cc1` (stereo not shown) [Compound 1-32, 2-(biphenyl-4-yl)-N-hydroxy-2-phenylacetamide] was below 1000 nM.
As for `O=C(NO)C(C(=O)Nc1cccc(C(F)(F)F)c1)c1ccccc1` (stereo not shown) [Compound 1-33, N1-hydroxy-2-phenyl-N3-(3-(trifluoromethyl)phenyl)malonamide], the figure is below 1000 nM.
The value for `O=C(NO)C(c1ccccc1)N1CCC(c2c[nH]c3ccccc23)CC1` (stereo not shown) [Compound 1-34, 2-(4-(1H-indol-3-yl)piperidin-1-yl)-N-hydroxy-2-phenylacetamide] was below 1000 nM; that for `O=C(NO)C(c1ccccc1)n1cc(Cc2ccccc2)nn1` (stereo not shown) [Compound 1-35, 2-(4-benzyl-1H-1,2,3-triazol-1-yl)-N-hydroxy-2-phenylacetamide] was below 1000 nM.
In turn, `O=C(NO)C(c1ccccc1)N1CCN(c2ncccn2)CC1` (stereo not shown) [Compound 1-36, N-hydroxy-2-phenyl-2-(4-(pyrimidin-2-yl)piperazin-1-yl)acetamide] came in with an IC50 below 1000 nM.
With `O=C(NO)C(Sc1nccc(-c2ccc(Cl)cc2)n1)c1ccccc1` (stereo not shown) [Compound 1-37, 2-(4-(4-chlorophenyl)pyrimidin-2-ylthio)-N-hydroxy-2-phenylacetamide], the IC50 was below 1000 nM.
`COc1ccccc1-c1nnc(C(C(=O)NO)c2ccccc2)s1` (stereo not shown) [Compound 1-38, N-hydroxy-2-(5-(2-methoxyphenyl)-1,3,4-thiadiazol-2-yl)-2-phenylacetamide] gave an IC50 below 1000 nM.
The value for `O=C(NO)C(c1ccccc1)c1nnc(-c2ccc(Br)cc2)s1` (stereo not shown) [Compound 1-39, 2-(5-(4-bromophenyl)-1,3,4-thiadiazol-2-yl)-N-hydroxy-2-phenylacetamide] was below 1000 nM; that for `CN(C)c1ccc(C(C(=O)NO)c2ccc(-c3ccccc3)cc2)cc1` (stereo not shown) [Compound 1-40, 2-(biphenyl-4-yl)-2-(4-(dimethylamino)phenyl)-N-hydroxyacetamide] was below 1000 nM.
As to `O=C(NO)C(c1ccccc1)c1ccc(N2CCCC2)cc1` (stereo not shown) [Compound 1-41, N-hydroxy-2-phenyl-2-(4-(pyrrolidin-1-yl)phenyl)acetamide], the IC50 was below 1000 nM.
`O=C(NO)C(Sc1nc(-c2ccccc2)c(-c2ccccc2)[nH]1)c1ccccc1` (stereo not shown) [Compound 1-42, 2-(4,5-diphenyl-1H-imidazol-2-ylthio)-N-hydroxy-2-phenylacetamide] displayed an IC50 of 1000 to 15000 nM.
As for `O=C(NO)C(c1ccccc1)N1CCC(Oc2ccccc2)CC1` (stereo not shown) [Compound 1-43, N-hydroxy-2-(4-phenoxypiperidin-1-yl)-2-phenylacetamide], the figure is below 1000 nM; as for `O=C(NO)C(c1ccccc1)N1CCC(c2ccccc2)CC1` (stereo not shown) [Compound 1-44, N-hydroxy-2-phenyl-2-(4-phenylpiperidin-1-yl)acetamide], below 1000 nM; as for `O=C(NO)C(c1ccccc1)c1ccc(-c2ccc(F)cc2)cc1` (stereo not shown) [Compound 1-45, 2-(4′-fluorobiphenyl-4-yl)-N-hydroxy-2-phenylacetamide], below 1000 nM.
Compound `O=C(NO)C(Sc1ccc(-c2ccccc2)cc1)c1ccccc1` (stereo not shown) [Compound 1-46, 2-(biphenyl-4-ylthio)-N-hydroxy-2-phenylacetamide] returned an IC50 below 1000 nM.
As for `O=CN(O)C(c1ccccc1)c1ccccc1` [Compound 1-47, N-benzhydryl-N-hydroxyformamide], the figure is below 1000 nM; as for `CCCCOc1cccc(C(C(=O)NO)c2ccccc2)c1` (stereo not shown) [Compound 2-5, 2-(3-butoxyphenyl)-N-hydroxy-2-phenylacetamide], 1000 to 15000 nM; as for `O=C(NO)C(c1ccccc1)c1cccc(OCc2ccccc2)c1` (stereo not shown) [Compound 2-6, 2-(3-(benzyloxy)phenyl)-N-hydroxy-2-phenylacetamide], below 1000 nM.

The values above are taken from patent US9096565B2, “Inhibitors of histone deacetylase” (MethylGene Inc., priority 2007, dated 2015).
